Results taken from PubChem BioAssay (NCI).
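Growth conditions: 96-well plates. Treatment: test compound, 48 hours, 5 concentrations. Analysis: linear interpolation between bracketing concentrations; unreached endpoints set to highest concentration. GI50 is the concentration that inhibits growth by half. TGI is the concentration that stops growth completely.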

How the values were obtained:
Experiment in all cases: NCI-60 cell line screen, 48 h
CAKI-1 renal = tested on: CAKI-1 renal
COLO 205 colon = tested on: COLO 205 colon
MOLT-4 leukemia = tested on: MOLT-4 leukemia
NCI-H522 lung = tested on: NCI-H522 lung
SF-539 CNS = tested on: SF-539 CNS
SNB-19 CNS = tested on: SNB-19 CNS
UO-31 renal = tested on: UO-31 renal
PC-3 prostate = tested on: PC-3 prostate
T-47D breast = tested on: T-47D breast
SK-MEL-5 melanoma = tested on: SK-MEL-5 melanoma

| SMILES | TGI (CAKI-1 renal) | TGI (COLO 205 colon) | TGI (MOLT-4 leukemia) | TGI (NCI-H522 lung) | TGI (SF-539 CNS) | TGI (SNB-19 CNS) | TGI (UO-31 renal) | GI50 (CAKI-1 renal) | GI50 (COLO 205 colon) | GI50 (MOLT-4 leukemia) | GI50 (NCI-H522 lung) | GI50 (PC-3 prostate) | TGI (PC-3 prostate) | GI50 (SF-539 CNS) | GI50 (SNB-19 CNS) | GI50 (T-47D breast) | TGI (T-47D breast) | GI50 (UO-31 renal) | GI50 (SK-MEL-5 melanoma) | TGI (SK-MEL-5 melanoma) |
| --- | --- | --- | --- | --- | --- | --- | --- | --- | --- | --- | --- | --- | --- | --- | --- | --- | --- | --- | --- | --- |
| O=C(CO[N+](=O)[O-])OC/C=C/c1ccccc1 | > 100 µM | > 100 µM | > 100 µM | > 100 µM | > 100 µM | > 100 µM | > 100 µM | – | – | – | – | – | – | – | – | – | – | – | – | – |
| Cc1ccc(-c2nc(N3CCNCC3)c3oc(-c4ccccc4)nc3n2)cc1 | 3.26 µM | 3.53 µM | 3.67 µM | 3.43 µM | 3.28 µM | 3.29 µM | 2.78 µM | 1.73 µM | 1.81 µM | 1.91 µM | 1.64 µM | 1.7 µM | 3.19 µM | 1.78 µM | 1.85 µM | 1.81 µM | 3.83 µM | 1.43 µM | – | – |
| CCCCCCCCCCCCCCCCCCOc1ccccc1CC(=O)OCC[N+](CC)(CC)CC | 4.47 µM | – | 3.07 µM | 6.84 µM | 5.82 µM | 5.6 µM | 14.5 µM | 1.42 µM | – | 1.26 µM | 1.53 µM | 1.2 µM | 3.18 µM | 1.62 µM | 1.52 µM | 1.48 µM | 8.16 µM | 5.52 µM | 0.942 µM | 1.75 µM |
| CCN(CC)c1ccc2nc3c4ccccc4c(=O)cc-3n(-c3ccccc3)c2c1 | 4.52 µM | 1.59 µM | 7.48 µM | – | 6.8 µM | > 100 µM | 3.48 µM | 1.32 µM | 0.353 µM | 2.36 µM | – | 1.9 µM | 7.58 µM | 2.49 µM | 3.32 µM | 0.194 µM | 0.87 µM | 0.786 µM | 0.444 µM | 1.74 µM |
| C/C(=N\n1c(O)c(C#N)cc(C#N)c1=O)c1ccncc1 | > 100 µM | > 100 µM | > 100 µM | > 100 µM | – | > 100 µM | > 100 µM | > 100 µM | > 100 µM | > 100 µM | > 100 µM | > 100 µM | > 100 µM | – | > 100 µM | > 100 µM | > 100 µM | > 100 µM | > 100 µM | > 100 µM |
| O=C(Nc1ccccc1C(F)(F)F)c1ccc(NC2=C(Cl)C(=O)N(Cc3ccccc3)C2=O)cc1 | 4.15 µM | > 100 µM | 31.6 µM | > 100 µM | 59.5 µM | > 100 µM | – | 1.97 µM | 98.1 µM | 3.14 µM | 40.3 µM | 12.2 µM | > 100 µM | 23 µM | 36.6 µM | > 100 µM | > 100 µM | – | 48.7 µM | > 100 µM |
| CC1CCC(=O)C(C(O)CC2CC(=O)N(c3ccccc3)C(=O)C2)C1 (configuration not stated) | > 100 µM | > 100 µM | > 100 µM | > 100 µM | > 100 µM | > 100 µM | > 100 µM | – | – | – | – | – | – | – | – | – | – | – | – | – |
| CC(=O)OCC1OC(OCc2ccccc2)C(Br)C(OC(C)=O)C1OC(C)=O (configuration not stated) | > 100 µM | > 100 µM | > 100 µM | > 100 µM | > 100 µM | > 100 µM | – | – | – | – | – | – | – | – | – | – | – | – | – | > 100 µM |
| COc1cc2c(cc1O)CN1CCC23C=C[C@@H](O)CC13 (some centres not stated) | > 100 µM | 78.1 µM | > 100 µM | > 100 µM | – | > 100 µM | > 100 µM | – | – | – | – | – | – | – | – | – | – | – | – | > 100 µM |
| CCOc1ccc(OCC)c([P+](c2ccccc2)(c2ccccc2)c2ccccc2)c1 | 6.1 µM | 1.31 µM | – | – | 8.77 µM | 12.7 µM | – | – | – | – | – | – | – | – | – | – | – | – | – | 1.14 µM |
| O=S(=O)(c1ccccc1)N1CN2CN(C1)CN(S(=O)(=O)c1ccccc1)C2 | > 100 µM | > 100 µM | – | – | > 100 µM | > 100 µM | > 100 µM | – | – | – | – | – | > 100 µM | – | – | – | – | – | – | > 100 µM |
| OCc1ccc(N2CCc3cc(F)ccc3C2)cc1Cl | 13.6 µM | 0.353 µM | 47.4 µM | 25.9 µM | 30.2 µM | 26.3 µM | 18.4 µM | 1.34 µM | 0.0828 µM | 15 µM | 12.7 µM | 11 µM | 27.6 µM | 16.1 µM | 13.2 µM | – | – | 1.7 µM | 3.95 µM | 20.4 µM |
| CN(NC1OC(CO)C(O)C(O)C1O)c1ccccc1 (configuration not stated) | > 100 µM | > 100 µM | > 100 µM | > 100 µM | – | > 100 µM | – | – | – | – | – | – | – | – | – | – | – | – | – | > 100 µM |
| COc1ccc(-c2[nH]nc(N)c2-c2cc(OC)c3c(c2)OCO3)cc1 | > 100 µM | 20 µM | 37.5 µM | – | 48.2 µM | > 100 µM | 69.7 µM | 3.98 µM | 4.76 µM | 3.73 µM | – | 14.3 µM | > 100 µM | 12.8 µM | 5.23 µM | 6.52 µM | > 100 µM | 4.35 µM | 2.85 µM | 8.97 µM |
| CC(=O)Nc1ccc(/C=C2\N=C(c3ccccc3)OC2=O)cc1 | – | > 100 µM | > 100 µM | – | – | > 100 µM | > 100 µM | – | – | – | – | – | – | – | – | – | – | – | – | > 100 µM |
| COc1cc(/C=C/C(=O)N2CCC=CC2=O)cc(OC)c1OC | – | 4.14 µM | 9.48 µM | 3.75 µM | 4.47 µM | 20.6 µM | 5.09 µM | – | 1.93 µM | 2.74 µM | 1.8 µM | 7.36 µM | 28.5 µM | 1.82 µM | 5.55 µM | 2.56 µM | 8.51 µM | 1.78 µM | 3.35 µM | 12 µM |
| COC1OC(CBr)C(OC(=O)c2ccccc2)C(OS(=O)(=O)c2ccc(C)cc2)C1Br (configuration not stated) | > 100 µM | > 100 µM | > 100 µM | > 100 µM | > 100 µM | > 100 µM | > 100 µM | – | – | – | – | – | – | – | – | – | – | – | – | – |
